The target of one experiment is T1, CRF2R (Homo sapiens, UniProt Q13324).
T1 sequence (Q13324 1-411): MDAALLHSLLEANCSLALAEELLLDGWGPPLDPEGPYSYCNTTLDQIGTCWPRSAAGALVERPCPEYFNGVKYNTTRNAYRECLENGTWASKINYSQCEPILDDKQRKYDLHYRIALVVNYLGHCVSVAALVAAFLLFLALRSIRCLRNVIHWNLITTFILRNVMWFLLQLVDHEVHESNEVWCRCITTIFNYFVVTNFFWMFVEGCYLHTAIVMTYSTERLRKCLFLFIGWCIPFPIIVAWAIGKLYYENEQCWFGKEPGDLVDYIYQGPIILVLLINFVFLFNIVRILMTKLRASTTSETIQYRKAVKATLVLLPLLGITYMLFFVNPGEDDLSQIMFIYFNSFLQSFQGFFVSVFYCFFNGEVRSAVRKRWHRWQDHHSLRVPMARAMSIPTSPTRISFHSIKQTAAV
The experiment in a line: CRF2R agonist activation (EC50 / Emax), called comparative CRF binding. It is filed as cell-based. To be noted: for Emax: read-out: CRF2R Emax. A digest of the protocol:
(§1)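 Read-out is Gαs-driven cAMP induction, quantified directly in lysates or through CRE-reporter gene expression, after treating CRF1R- or CRF2R-expressing cells with peptide. Vehicle-treated cells serve as the comparison.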

For a further experiment, the target named is T2, CRF1R (Homo sapiens, UniProt P34998).
T2 sequence (P34998 24-415): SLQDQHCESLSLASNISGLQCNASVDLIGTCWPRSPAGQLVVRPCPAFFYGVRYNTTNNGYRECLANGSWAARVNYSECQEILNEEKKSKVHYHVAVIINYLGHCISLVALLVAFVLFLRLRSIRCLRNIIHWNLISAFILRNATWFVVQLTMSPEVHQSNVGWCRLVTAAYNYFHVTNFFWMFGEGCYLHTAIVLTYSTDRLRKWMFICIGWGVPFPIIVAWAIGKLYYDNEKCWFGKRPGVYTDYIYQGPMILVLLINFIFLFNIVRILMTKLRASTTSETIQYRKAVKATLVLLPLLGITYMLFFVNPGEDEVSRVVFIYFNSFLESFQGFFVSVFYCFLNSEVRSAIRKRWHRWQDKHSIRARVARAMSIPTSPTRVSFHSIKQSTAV
The experiment in a line: CRF1R agonist activation (EC50 / Emax), called comparative CRF binding. It is filed as cell-based. To be noted: for Emax: read-out: CRF1R Emax. A digest of the protocol:
as §1

Each structure is given as a SMILES string. pEC50: −log10 of the molar value. Peptide text beside a SMILES is read from it.

`CC[C@H](C)[C@H](N)C(=O)N[C@H](C(=O)N[C@@H](CC(C)C)C(=O)N[C@@H](CO)C(=O)N[C@@H](CC(C)C)C(=O)N[C@@H](CC(=O)O)C(=O)N[C@H](C(=O)N1CCC[C@H]1C(=O)N[C@H](C(=O)NCC(=O)N[C@@H](CC(C)C)C(=O)N[C@@H](CC(C)C)C(=O)N[C@@H](CCC(N)=O)C(=O)N[C@H](C(=O)N[C@@H](CC(C)C)C(=O)N[C@@H](CC(C)C)C(=O)N[C@@H](CCC(=O)O)C(=O)N[C@@H](CC(C)C)C(=O)N[C@@H](C)C(=O)N[C@@H](CCCNC(=N)N)C(=O)N[C@H](C(=O)N[C@@H](CCC(N)=O)C(=O)N[C@@H](CO)C(=O)N[C@@H](CCC(N)=O)C(=O)N[C@@H](CCCNC(=N)N)C(=O)N[C@@H](CCC(=O)O)C(=O)N[C@@H](CCCNC(=N)N)C(=O)N[C@@H](C)C(=O)N[C@@H](CCC(=O)O)C(=O)N[C@@H](CCC(N)=O)C(=O)N[C@@H](CC(N)=O)C(=O)N[C@@H](CCCNC(=N)N)C(=O)N[C@H](C(=O)N[C@H](C(=O)N[C@@H](Cc1ccccc1)C(=O)N[C@@H](CC(=O)O)C(=O)N[C@@H](CO)C(=O)N[C@H](C(N)=O)C(C)C)[C@@H](C)CC)[C@@H](C)CC)[C@@H](C)O)[C@@H](C)O)[C@@H](C)CC)C(C)C)C(C)C` [compound 160] (H-IVLSLDVPIGLLQTLLELARTQSQRERAEQNRIIFDSV-NH2; N-terminus assumed): the Emax came out at 87% on CRF2R and 10% at CRF1R.
With `CC[C@H](C)[C@H](N)C(=O)N[C@H](C(=O)N[C@@H](CC(C)C)C(=O)N[C@@H](CO)C(=O)N[C@@H](CC(C)C)C(=O)N[C@@H](CC(=O)O)C(=O)N[C@H](C(=O)N1CCC[C@H]1C(=O)N[C@H](C(=O)NCC(=O)N[C@@H](CC(C)C)C(=O)N[C@@H](CC(C)C)C(=O)N[C@@H](CCC(N)=O)C(=O)N[C@H](C(=O)N[C@@H](CC(C)C)C(=O)N[C@@H](CC(C)C)C(=O)N[C@@H](CCC(=O)O)C(=O)N[C@@H](CCC(N)=O)C(=O)N[C@@H](C)C(=O)N[C@@H](CCCNC(=N)N)C(=O)N[C@@H](C)C(=O)N[C@@H](CCCNC(=N)N)C(=O)N[C@@H](C)C(=O)N[C@@H](C)C(=O)N[C@@H](CCCNC(=N)N)C(=O)N[C@@H](CCC(=O)O)C(=O)N[C@@H](CCC(N)=O)C(=O)N[C@@H](C)C(=O)N[C@H](C(=O)N[C@@H](CO)C(=O)N[C@@H](CC(N)=O)C(=O)N[C@@H](CCCNC(=N)N)C(=O)N[C@@H](CCCCN)C(=O)N[C@@H](CC(C)C)C(=O)N[C@@H](CCSC)C(=O)N[C@@H](CCC(=O)O)C(=O)N[C@H](C(=O)N[C@H](C(N)=O)[C@@H](C)CC)[C@@H](C)CC)[C@@H](C)O)[C@@H](C)CC)[C@@H](C)CC)C(C)C)C(C)C` [compound 163] (H-IVLSLDVPIGLLQILLEQARARAAREQATSNRKLMEII-NH2; N-terminus assumed), the pEC50 on CRF2R (read-out: CRF2R EC50) was 8.35; on CRF1R (read-out: CRF1R EC50), less than 7.00. Further, the Emax came to 96% at CRF2R and 13% on CRF1R.
With `CC[C@H](C)[C@H](N)C(=O)N[C@H](C(=O)N[C@@H](CC(C)C)C(=O)N[C@@H](CO)C(=O)N[C@@H](CC(C)C)C(=O)N[C@@H](CC(=O)O)C(=O)N[C@H](C(=O)N1CCC[C@H]1C(=O)N[C@H](C(=O)NCC(=O)N[C@@H](CC(C)C)C(=O)N[C@@H](CC(C)C)C(=O)N[C@@H](CCC(N)=O)C(=O)N[C@H](C(=O)N[C@@H](CC(C)C)C(=O)N[C@@H](CC(C)C)C(=O)N[C@@H](CCC(=O)O)C(=O)N[C@@H](CCSC)C(=O)N[C@@H](C)C(=O)N[C@@H](CCCNC(=N)N)C(=O)N[C@@H](C)C(=O)N[C@@H](CCC(=O)O)C(=O)N[C@@H](CCC(N)=O)C(=O)N[C@@H](CC(C)C)C(=O)N[C@@H](C)C(=O)N[C@@H](CCC(N)=O)C(=O)N[C@@H](CCC(N)=O)C(=O)N[C@@H](C)C(=O)N[C@@H](Cc1c[nH]cn1)C(=O)N[C@@H](CO)C(=O)N[C@@H](CC(N)=O)C(=O)N[C@@H](CCCNC(=N)N)C(=O)N[C@@H](CCCCN)C(=O)N[C@@H](CC(C)C)C(=O)N[C@@H](CCSC)C(=O)N[C@@H](CCC(=O)O)C(=O)N[C@H](C(=O)N[C@H](C(N)=O)[C@@H](C)CC)[C@@H](C)CC)[C@@H](C)CC)[C@@H](C)CC)C(C)C)C(C)C` [compound 164] (H-IVLSLDVPIGLLQILLEMARAEQLAQQAHSNRKLMEII-NH2; N-terminus assumed), the Emax on CRF2R worked out at 92%; at CRF1R it was 26%.

By Emax is commonly meant the greatest response seen or fitted, relative to the assay's reference. Broadly, the pEC50 is the EC50 on a negative log10 scale, so that one unit is a factor of ten.

The record behind these values is patent US6936585B2, “Corticotropin releasing factor 2 receptor agonists” (priority 2002, dated 2005).
